Literature values, collected in US7771758B2, “Extract of mad-dog skullcap” (Tom's of Maine, priority 2002, dated 2010).

Legend:
[1] = test system: benzodiazepine site of the GABAA receptor; settings: in vitro; flavones isolated from Scutellaria baicalensis

SMILES: O=c1cc(-c2ccccc2)oc2cc(O)c(O)c(O)c12 [Baicalein, baicalein]
- intestinal absorption (in vivo): readily absorbed intestinally
- conjugation in the plasma (plasma): efficiently conjugated back to baicalin
- ability to bind to the benzodiazepine site of the GABAA receptor [1]: weak ligands

SMILES: O=C(O)[C@H]1O[C@@H](Oc2cc3oc(-c4ccccc4)cc(=O)c3c(O)c2O)[C@H](O)[C@@H](O)[C@@H]1O [baicalin]
- transformation by intestinal bacteria (intestinal bacteria): transformed to its aglycon baicalein
- ability to bind to the benzodiazepine site of the GABAA receptor [1]: weak ligands

SMILES: COc1c(O)cc2oc(-c3ccccc3)cc(=O)c2c1O [oroxylin A]
- ability to bind to the benzodiazepine site of the GABAA receptor [1]: strong affinity

SMILES: COc1c(O)cc(O)c2c(=O)cc(-c3ccccc3)oc12 [wogonin]
- ability to bind to the benzodiazepine site of the GABAA receptor [1]: strong affinity
